Results: patent US20070110693A1, “COMPOSITIONS CONTAINING PEPTIDE COPPER COMPLEXES AND SOFT TISSUE FILLERS, AND METHODS RELATED THERETO” (PROCYTE CORPORATION, priority 2002, published 2007)

How the values were obtained:
collagen synthesis = experiment: Subcutaneous stainless steel chamber implant model: collagen content measured as hydroxyproline (HYP); format: in vivo, rat
Text: (§1) The subcutaneous implantation of stainless steel chambers in rats provides a model for studying the synthesis of extracellular matrix components (collagen and glycosaminoglycan) by providing a recoverable site of new matrix synthesis. The assay involves implanting in each rat, two cylindrical stainless steel chambers (1 cm in diameter×2.5 cm long, 312 SS, 20 mesh, with Teflon end caps), one on each side of the rats' dorsal midline. After allowing for encapsulation of the chambers, both chambers on each rat were injected with 0.2 ml of a solution containing the representative soft tissue filler or saline on day 4 after implantation, and the test peptide copper compound (or saline alone as a control) on days 6, 8, 11, 13, 15, 16, and 18. Chambers were removed from the animals on day 30 after implantation for biochemical analysis.
The chambers were lyophylized and the interior contents removed for biochemical analysis. The biochemical parameters examined include collagen content, the latter being measured as a hydroxyproline (“HYP”) content. The latter, an amino acid specific for collagen, was measured after acid hydrolysis and using a colormetric assay for HYP (see e.g., Bergman, I and Loxley, R., “The Determination of Hydroxyproline in Urine Hydrolysates,” Clin. Chim. Acta. 27: 347-349, 1970). Collagen content was expressed as μg of HYP per chamber or per milligram of protein.
(§2) In this example, hydroxypropyl methyl cellulose was used as the soft tissue filler. A dose of 6 milligrams of the hydroxypropyl methyl cellulose, as a gel, was injected into each of the chambers. Injections of saline served as controls.
(§3) Glycyl-L-histidyl-L-lysine:copper(II) (“GHK-Cu”), was used as the peptide copper complex used. The GHK-Cu was prepared at a molar ratio of 2 moles of peptide to one mole of copper(II), and dissolved in a saline solution at a concentration of 10 milligrams/milliliter. A dose of […] of GHK-Cu was injected for each day of treatment.
(§4) The stimulation of collagen and GAG synthesis by injection of various peptide copper complexes has been determined by methods described in Example 1. The peptide copper complexes used were L-alanyl-L-histidyl-L-lysine:copper(II) (“AHK-Cu”), prepared at a molar ratio of 1 mole of peptide to one mole of copper(II), and glycyl-L-histidyl-L-lysyl-L-valyl-L-phenylalanyl-L-valine:copper(II) (“GHKVFV-Cu”), prepared at a molar ratio of 2 moles of peptide to one mole of copper(II). The peptide copper complexes were dissolved in a saline solution at a concentration of 10 milligrams/milliliter. A dose of 2.4 micromoles of peptide copper complex was injected on each treatment day.
The stimulation of collagen synthesis by injection of various peptide copper complexes has been determined by methods described in Examples 1 and 2. […]

[1] = test system: glycosaminoglycan (GAG) synthesis; experiment: Subcutaneous stainless steel chamber implant model: glycosaminoglycan (GAG) content measured as uronic acid (UA); format: in vivo, rat
Text: as §1
The chambers were also analyzed for glycosaminoglycan content, another component of the extracellular matrix or skin. Glycosaminoglycan (“GAG”) content was determined by quantifying the amount of uronic acid (“UA”), a carbohydrate component specific for GAGs. UA was determined by a colorimetric assay, as described using 2-hydroxydiphenyl as a reagent (see, e.g., Vilim, V., “Colorimetric Estimation of Uronic Acids using 2-hydroxydiphenyl as a Reagent,” Biomed. Biochim. Acta. 44 11/12 s: 1717-1720, 1985). GAG content was expressed as μg of UA per chamber.
as §2, §3, §4

[2] = Example 3, 0.6 mg of peptide copper complex per treatment day, saline control 1838 ± 636
[3] = Example 2, 2.4 micromoles of peptide copper complex per treatment day, saline control 60 ± 5

Substance	μg HYP/Chamber Mean ± SEM (collagen synthesis; [2])	μg Uronic Acid/Chamber Mean ± SEM [1, 3]	other results
glycyl-L-histidyl-L-leucine:copper(II) [GHL-Cu]	3619 ± 754 μg HYP/Chamber	–	–
glycyl-L-histidyl-L-lysyl-L-valyl-L-phenylalanyl-L-valine:copper(II) [GHKVFV-Cu]	–	79 ± 9 μg Uronic Acid/Chamber	–
Glycyl-L-histidyl-L-lysine:copper(II) [GHK-Cu]	–	–	μg HYP/Chamber Mean ± SEM (collagen synthesis; Example 1, GHK-Cu 0.2 mg per treatment day in combination with soft tissue filler HPMC 6 mg on day 4, chambers removed day 30, saline control 1222 ± 111): 3423 ± 341 μg HYP/Chamber; μg HYP/Chamber Mean ± SEM (collagen synthesis; Example 1, agent alone (GHK-Cu 0.2 mg per treatment day on days 6-18, or HPMC gel 6 mg on day 4), chambers removed day 30, saline control 1222 ± 111): 4226 ± 265 μg HYP/Chamber; μg Uronic Acid/Chamber Mean ± SEM ([1]; Example 1, GHK-Cu 0.2 mg per treatment day in combination with soft tissue filler HPMC 6 mg on day 4, chambers removed day 30, saline control 46.3 ± 5.8): 88.1 ± 5.6 μg Uronic Acid/Chamber; μg Uronic Acid/Chamber Mean ± SEM ([1]; Example 1, agent alone (GHK-Cu 0.2 mg per treatment day on days 6-18, or HPMC gel 6 mg on day 4), chambers removed day 30, saline control 46.3 ± 5.8): 117.3 ± 12.9 μg Uronic Acid/Chamber
L-alanyl-L-histidyl-L-lysine:copper(II) [AHK-Cu]	–	105 ± 21 μg Uronic Acid/Chamber	–
glycyl-L-histidyl-L-leucine methyl ester:copper(II) [GHL-Me-Cu]	3357 ± 863 μg HYP/Chamber	–	–
